11 molecules from ChEMBL document CHEMBL1201862, “PubChem BioAssay data set” (2004) can be followed below.

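A five-concentration, 48-hour dose response in 96-well plates underlies each endpoint, interpolated linearly between surrounding concentrations. The concentration for 50% growth inhibition is given as GI50.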 Activity calls are given as the source filed them. Cut-off read from the data, not from the text of the source: active = GI50 up to about 1.1 µM and inactive = higher. Square brackets hold non-standard residues; d marks the D form. Peptide text beside a SMILES is read from it. * marks the point of attachment. Boc = CC(C)(C)OC(=O)*; OBn = c1ccc(CO*)cc1

Holding throughout (test): NCI anticancer screen, dose series, 48 h
Experiment [1] has as its system OVCAR-3.
Experiment [2] relates to HCT-116.
In experiment [3] the test system is MDA-MB-231.
For experiment [4], the system named is SK-MEL-2.
Experiment [5] concerns KM12.
The subject of experiment [6] is Malme-3M.
The test system of experiment [7] is SW-620.
The subject of experiment [8] is COLO 205.
For experiment [9], the system named is UACC-62.
The test system of experiment [10] is M14.
For experiment [11], the system named is Hs-578T.
The test system of experiment [12] is K562.
In experiment [13] the test system is SF-295.
Experiment [14] concerns CCRF-CEM.
The subject of experiment [15] is HL-60.
Experiment [16] relates to MOLT-4.
In experiment [17] the test system is MCF7.
Experiment [18] has as its system NCI-H460.
The subject of experiment [19] is HCC 2998.
For experiment [20], the system named is A498.

As to `CCSc1n/c(=C\c2ccco2)c2nncn12`, the GI50 in experiment [1], in experiment [2], in experiment [3], in [4], in experiment [5] and in experiment [6] was > 100 µM (inactive) throughout. Moreover, the GI50 in experiment [7], in experiment [8], in experiment [9], in experiment [10], in experiment [11] and in experiment [12] was > 100 µM (inactive) throughout. In addition, the GI50 in experiment [13], in experiment [14], in experiment [15], in experiment [16] and in [17] was > 100 µM (inactive) each time.

Take `CC(C)(C)OC(=O)NCC(c1c[nH]c2cc(Br)ccc12)c1c[nH]c2cc(Br)ccc12`: the GI50 in experiment [1] is 15.7 µM (inactive); in experiment [2] it was 17 µM (inactive); in experiment [18], 21.2 µM (inactive); in experiment [3], 18 µM (inactive); in [4], 18.4 µM (inactive); in experiment [5], 18.3 µM (inactive). Further, the GI50 in experiment [6] was 17.2 µM (inactive); in [7] it was 28.9 µM (inactive); in [8], 15.6 µM (inactive); in [9], 16 µM (inactive); in experiment [10], 18.7 µM (inactive); in [11], 19.8 µM (inactive). The GI50 is 40.1 µM (inactive) in experiment [12]; 18.6 µM (inactive) in experiment [13]; 62.1 µM (inactive) in [14]; 18.9 µM (inactive) in [19]; 27.2 µM (inactive) in [15]; 34.6 µM (inactive) in experiment [16]. The GI50 in [17] is 18.6 µM (inactive).

As to `COC(=O)C1=C(C(=O)OC)C2OC1C1C2C2(C)C(C)=C(C)C1(C)[S+]2[O-]` (configuration not stated), the GI50 is 9.02 µM (inactive) in experiment [1]; 6.08 µM (inactive) in experiment [2]; 15.9 µM (inactive) in experiment [18]; 22.5 µM (inactive) in experiment [3]; 10.8 µM (inactive) in experiment [4]; 19 µM (inactive) in [5]. Besides, the GI50 is 6.98 µM (inactive) in [6]; 4.14 µM (inactive) in experiment [7]; 6.43 µM (inactive) in experiment [8]; 8.99 µM (inactive) in experiment [9]; 8.59 µM (inactive) in experiment [10]; 27.5 µM (inactive) in experiment [20]. Moreover, the GI50 in experiment [11] is 20.8 µM (inactive); in experiment [12], 4.9 µM (inactive); in [13], 28.4 µM (inactive); in [19], 20.1 µM (inactive); in [16], 2.02 µM (inactive); in experiment [17], 6.28 µM (inactive).

Take `CSc1ccc(NC(=O)CCl)cc1`: the GI50 in experiment [1] was 3.75 µM (inactive); in experiment [2] it was 3.03 µM (inactive); in experiment [18], 2.41 µM (inactive); in experiment [3] it was 7.31 µM (inactive); in experiment [4], 1.81 µM (inactive); in experiment [5], > 10 µM (inactive). The GI50 in [7] was 8.32 µM (inactive); in [8], 3.02 µM (inactive); in experiment [9], 1.85 µM (inactive); in experiment [10] it was 1.92 µM (inactive); in experiment [11], 3.1 µM (inactive); in [12], 3.13 µM (inactive). In addition, the GI50 in experiment [13] is 2.58 µM (inactive); in [14] it was 2.43 µM (inactive); in experiment [19], 2.18 µM (inactive); in experiment [15], 3.33 µM (inactive); in experiment [16], 3.4 µM (inactive); in experiment [17], 3.51 µM (inactive).

Take `O=C(NC/C(Cl)=C/Cl)Nc1cccc2c1CCCC2`: the GI50 in [1] is > 100 µM (inactive); in [2] it was > 100 µM (inactive); in experiment [18], 83.8 µM (inactive); in experiment [3] it was > 100 µM (inactive); in experiment [4] it was > 100 µM (inactive); in experiment [5] it was > 100 µM (inactive). Also, the GI50 was > 100 µM (inactive) in experiment [6]; > 100 µM (inactive) in experiment [7]; > 100 µM (inactive) in experiment [8]; > 100 µM (inactive) in experiment [9]; > 100 µM (inactive) in experiment [10]; 65.8 µM (inactive) in [20]. Besides, the GI50 in experiment [11] is > 100 µM (inactive); in experiment [13], > 100 µM (inactive); in [19], > 100 µM (inactive); in experiment [16] it was 29.5 µM (inactive); in [17], > 100 µM (inactive).

As for `C(#Cc1ccccc1)SC1=C(c2ccccc2)S/C(=C(\SC#Cc2ccccc2)c2ccccc2)S1`, the GI50 in [1], in experiment [2], in experiment [18], in experiment [3], in [5] and in experiment [7] was > 100 µM (inactive) each time. The GI50 in experiment [8], in experiment [9], in experiment [10], in [11], in [12] and in [13] was > 100 µM (inactive) each time. The GI50 in [14], in experiment [19], in [16] and in [17] was > 100 µM (inactive) in each case.

`CCOC(=O)/C=C(/C(=O)OCC)n1ccc(=O)n(Cc2cnnn2CCCCOC(C)=O)c1=O`: the GI50 in experiment [1], in experiment [2], in [18], in [3], in experiment [4] and in experiment [5] was > 100 µM (inactive) throughout. Besides, the GI50 in experiment [7] was 20.1 µM (inactive); in experiment [8], 19.1 µM (inactive); in [9] it was > 100 µM (inactive); in experiment [11], > 100 µM (inactive); in experiment [12], 70.1 µM (inactive); in [13] it was > 100 µM (inactive). In addition, the GI50 was 2.2 µM (inactive) in experiment [14], > 100 µM (inactive) in experiment [19], 20.4 µM (inactive) in experiment [16] and 52 µM (inactive) in [17].

With `CC1=NN2C(=O)CC(=O)N=C2S1`, the GI50 in experiment [1], in experiment [2], in experiment [18], in experiment [3], in experiment [4] and in experiment [5] was > 100 µM (inactive) each time. Further, the GI50 in experiment [6], in experiment [7], in [8], in experiment [9], in [10] and in experiment [11] was > 100 µM (inactive) each time. Also, the GI50 in [12], in experiment [13], in experiment [14], in experiment [15], in experiment [16] and in experiment [17] was > 100 µM (inactive) in each case.

On to `COC(=O)[C@]1(c2cc3ccccc3n2S(=O)(=O)c2ccccc2)CC2CN(C(=O)OCc3ccccc3)C1C1OC(C)(C)OC21` (some centres not stated), for which the GI50 in experiment [1], in experiment [2], in [18], in experiment [3], in experiment [4] and in experiment [5] was > 100 µM (inactive) in each case. Further, the GI50 in experiment [6] was 2.09 µM (inactive); in [7] it was > 100 µM (inactive); in experiment [8], > 100 µM (inactive); in experiment [9], > 100 µM (inactive); in experiment [10], 80.5 µM (inactive); in experiment [11], > 100 µM (inactive). The GI50 in experiment [13], in [14], in experiment [19], in experiment [15], in [16] and in experiment [17] was > 100 µM (inactive) in each case.

As to `C[C@@H](NC(=O)CNC(=O)OC(C)(C)C)C(=O)N[C@@H](Cc1ccccc1)C(=O)OCc1ccccc1` (Boc-Gly-[dA]-Phe-OBn), the GI50 in experiment [2] was 47.3 µM (inactive); in [3], 37.1 µM (inactive); in experiment [4], 26.7 µM (inactive); in [5], > 100 µM (inactive); in experiment [6], 16.2 µM (inactive); in [7], 61.7 µM (inactive). Besides, the GI50 is 18.2 µM (inactive) in experiment [8]; 34 µM (inactive) in [9]; 19.8 µM (inactive) in experiment [10]; 22.3 µM (inactive) in experiment [11]; 23.1 µM (inactive) in experiment [12]; > 100 µM (inactive) in experiment [13]. Moreover, the GI50 in experiment [14] is 19.5 µM (inactive); in [15], 35.1 µM (inactive); in [16] it was 15 µM (inactive); in experiment [17], > 100 µM (inactive).

Take `O=c1[nH]c(=O)n([C@@H]2O[C@H](CO)[C@@H](O)[C@H]2O)cc1F` [5-FLUOROURIDINE]: the GI50 was 0.223 µM (active) in experiment [1]; 0.0167 µM (active) in experiment [2]; 0.0159 µM (active) in experiment [18]; 1.63 µM (inactive) in experiment [3]; 2.32 µM (inactive) in experiment [4]; 0.0671 µM (active) in [5]. The GI50 in experiment [6] was 0.0678 µM (active); in experiment [7], 0.0222 µM (active); in experiment [8] it was 0.0787 µM (active); in experiment [9], 0.169 µM (active); in experiment [10] it was 0.222 µM (active); in [20], 0.308 µM (active). Also, the GI50 is 2.01 µM (inactive) in [11]; 0.0212 µM (active) in experiment [12]; 0.145 µM (active) in experiment [13]; 0.057 µM (active) in experiment [14]; 0.0311 µM (active) in [19]; 0.0867 µM (active) in [15]. In experiment [16], the GI50 is 0.0861 µM (active).
